The experiment deals with human GPR17 short isoform (Homo sapiens, UniProt Q13304). The experiment is described as follows: GPR17 cAMP assay (TR-FRET cAMP quantification, antagonist mode). It counts as cell-based. To be noted: CHO-K1 cells stably expressing human GPR17 short isoform; EC80 of agonist MDL29,951; forskolin 15µM; IBMX 0.5mM; 30 minutes at room temperature; read-out: hGPR17 cAMP IC50. As for the experimental part: GPR17 cAMP Assay Protocol:
CHO-K1 cells stably expressing vector containing untagged human GPR17 short isoform (Roche) were cultured at 37°C / 5% CO2 in DMEM (Dulbecco's Modified Eagle Medium):F-12 (1:1) supplemented with 10% foetal bovine serum and 400 µg/ml Geneticin.
Changes in intracellular cyclic adenosine monophosphate (cAMP) levels were quantified using the Nano-TRF Detection Assay kit (Roche Diagnostics, Cat. No. 05214386001). This assay allows for direct cAMP quantification in a homogeneous solution. cAMP is detected based on time-resolved fluorescence energy transfer (TR-FRET) and competitive binding of ruthenylated cAMP and endogenous cAMP to an anti-cAMP monoclonal antibody labeled with AlexaFluor-700. The Ruthenium complex serves as the FRET donor and transfers energy to AlexaFluor-700. The FRET signal is inversely proportional to the cAMP concentration.
CHO-GPR17S cells were detached with Accutase and resuspended in assay buffer consisting of Hank's Balanced Salt Solution (HBSS), 10mM HEPES (4-(2-hydroxyethyl) piperazine-1-ethanesulfonic acid solution) and 0.1% bovine serum albumin (pH 7.4). The cells were seeded in black 384-well plates (Corning) at a density of 10'000 cells / 20µl assay buffer until the addition of compounds.
Test antagonist compounds were serially diluted in dimethyl sulfoxide (DMSO) and spotted in 384-well plates. The compounds were then diluted in HBSS buffer supplemented with an EC80 concentration of MDL29,951 (3-(2-Carboxy-4,6-dichloroindol-3-yl)propionic acid) (GPR17 agonist) plus 3-Isobutyl-1-methylxanthine (IBMX) (0.5mM final concentration) and added to the cells at room temperature. Forskolin (15µM final concentration) was added 5 minutes after the test compounds and the cells were incubated at room temperature for 30 minutes. The assay was stopped by adding cAMP detection mix (containing detergents for cell lysis) for 90 minutes at room temperature.
Cellular cAMP was measured using a Paradigm reader (Molecular Devices). The raw data was used to calculate the FRET signal based on the assay's P-factor as per cAMP kit instructions. The data was normalized to the maximal activity of a reference antagonist and dose response curves were fitted to the percent activity of the test compounds using a sigmoidal dose response model (Genedata Screener).
Results in the hGPR17 cAMP assay are provided for compounds of formula I in Table 1 Table 1: […]
(Changes in cAMP serve as a functional read-out for many G protein-coupled receptors.)

human GPR17 short isoform, sequence (Q13304 29-367): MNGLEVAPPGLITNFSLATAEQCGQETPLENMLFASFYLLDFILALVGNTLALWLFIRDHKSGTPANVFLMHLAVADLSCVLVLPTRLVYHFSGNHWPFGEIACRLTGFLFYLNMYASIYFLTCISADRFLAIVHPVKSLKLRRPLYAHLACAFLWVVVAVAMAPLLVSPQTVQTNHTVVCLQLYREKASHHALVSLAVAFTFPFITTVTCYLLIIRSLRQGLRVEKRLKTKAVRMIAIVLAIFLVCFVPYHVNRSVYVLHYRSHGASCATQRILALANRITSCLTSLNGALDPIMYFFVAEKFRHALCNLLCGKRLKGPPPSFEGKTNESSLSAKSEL

By IC50 is commonly meant the midpoint of a concentration-inhibition curve. Turning to `COc1nc(NS(=O)(=O)c2c[nH]c3c(-c4ncccn4)c(F)ccc23)nc(OC)c1OCCF` [Example 28, 6-fluoro-N-[5-(2-fluoroethoxy)-4,6-dimethoxy-pyrimidin-2-yl]-7-(2-pyrimidyl)-1H-indole-3-sulfonamide], the IC50 was 307 nM.
In the case of `COc1nc(NS(=O)(=O)c2c[nH]c3c(-c4ncccn4)c(F)ccc23)nc(OC)c1OC(F)F` [Example 29, N-[5-(difluoromethoxy)-4,6-dimethoxy-pyrimidin-2-yl]-6-fluoro-7-(2-pyrimidyl)-1H-indole-3-sulfonamide] it was 604 nM; in that of `COc1nc(NS(=O)(=O)c2c[nH]c3c(-c4cnccn4)cccc23)nc(OC)c1OCC(F)F` [Example 30, N-[5-(2,2-difluoroethoxy)-4,6-dimethoxy-pyrimidin-2-yl]-7-pyrazin-2-yl-1H-indole-3-sulfonamide], 130 nM; in that of `COc1nc(NS(=O)(=O)c2c[nH]c3c(-c4cnccn4)c(F)ccc23)nc(OC)c1CC(F)F` [Example 31, N-[5-(2,2-difluoroethyl)-4,6-dimethoxy-pyrimidin-2-yl]-6-fluoro-7-pyrazin-2-yl-1H-indole-3-sulfonamide], 84 nM.
Take `COc1nc(NS(=O)(=O)c2c[nH]c3c(-c4cnccn4)c(F)ccc23)nc(OC)c1OCCF` [Example 32, 6-fluoro-N-[5-(2-fluoroethoxy)-4,6-dimethoxy-pyrimidin-2-yl]-7-pyrazin-2-yl-1H-indole-3-sulfonamide]: the IC50 stood at 129 nM.
The same measure for `COc1nc(NS(=O)(=O)c2c[nH]c3c(-c4cnccn4)c(F)ccc23)nc(OC)c1OCC(F)F` [Example 33, N-[5-(2,2-difluoroethoxy)-4,6-dimethoxy-pyrimidin-2-yl]-6-fluoro-7-pyrazin-2-yl-1H-indole-3-sulfonamide]: 132 nM; for `COc1nc(NS(=O)(=O)c2c[nH]c3c(-c4cnccn4)c(F)ccc23)nc(OC)c1OC(F)F` [Example 34, N-[5-(difluoromethoxy)-4,6-dimethoxy-pyrimidin-2-yl]-6-fluoro-7-pyrazin-2-yl-1H-indole-3-sulfonamide]: 407 nM.
On to `COc1nc(NS(=O)(=O)c2c[nH]c3c(-c4ncccn4)c(Br)ccc23)nc(OC)c1CC(F)F` [Example 35, 6-bromo-N-[5-(2,2-difluoroethyl)-4,6-dimethoxy-pyrimidin-2-yl]-7-(2-pyrimidyl)-1H-indole-3-sulfonamide], for which the IC50 amounted to 34 nM.
For the compound `COc1nc(NS(=O)(=O)c2c[nH]c3c(-c4ncccn4)c(Br)ccc23)nc(OC)c1OC(F)F` [Example 36, 6-bromo-N-[5-(difluoromethoxy)-4,6-dimethoxy-pyrimidin-2-yl]-7-(2-pyrimidyl)-1H-indole-3-sulfonamide], the IC50 stood at 42 nM.
The same measure for `COc1nc(NS(=O)(=O)c2c[nH]c3c(-c4ncccn4)c(Br)ccc23)nc(OC)c1OCCF` [Example 37, 6-bromo-N-[5-(2-fluoroethoxy)-4,6-dimethoxy-pyrimidin-2-yl]-7-(2-pyrimidyl)-1H-indole-3-sulfonamide]: 67 nM.
In the case of `COc1nc(NS(=O)(=O)c2c[nH]c3c(-c4ncccn4)c(Br)ccc23)nc(OC)c1OCC(F)F` [Example 38, 6-bromo-N-[5-(2,2-difluoroethoxy)-4,6-dimethoxy-pyrimidin-2-yl]-7-(2-pyrimidyl)-1H-indole-3-sulfonamide] it was 54 nM; in that of `COc1nc(NS(=O)(=O)c2c[nH]c3c(-c4cnccn4)c(Br)ccc23)nc(OC)c1CC(F)F` [Example 39, 6-bromo-N-[5-(2,2-difluoroethyl)-4,6-dimethoxy-pyrimidin-2-yl]-7-pyrazin-2-yl-1H-indole-3-sulfonamide], 17 nM; in that of `COc1nc(NS(=O)(=O)c2c[nH]c3c(-c4cnccn4)c(Br)ccc23)nc(OC)c1OC(F)F` [Example 40, 6-bromo-N-[5-(difluoromethoxy)-4,6-dimethoxy-pyrimidin-2-yl]-7-pyrazin-2-yl-1H-indole-3-sulfonamide], 9 nM.
The same measure for `COc1nc(NS(=O)(=O)c2c[nH]c3c(-c4cnccn4)c(Br)ccc23)nc(OC)c1OCC(F)F` [Example 41, 6-bromo-N-[5-(2,2-difluoroethoxy)-4,6-dimethoxy-pyrimidin-2-yl]-7-pyrazin-2-yl-1H-indole-3-sulfonamide]: 15 nM.
In the case of `COc1nc(NS(=O)(=O)c2c[nH]c3c(-c4cnc(F)cn4)c(Cl)ccc23)nc(OC)c1OCC(F)F` [Example 42, 6-chloro-N-[5-(2,2-difluoroethoxy)-4,6-dimethoxy-pyrimidin-2-yl]-7-(5-fluoropyrazin-2-yl)-1H-indole-3-sulfonamide], the IC50 stood at 38 nM.
The same measure for `COc1nc(NS(=O)(=O)c2c[nH]c3c(-c4cccnn4)c(Br)ccc23)nc(OC)c1CC(F)F` [Example 43, 6-bromo-N-[5-(2,2-difluoroethyl)-4,6-dimethoxy-pyrimidin-2-yl]-7-pyridazin-3-yl-1H-indole-3-sulfonamide]: 32 nM; for `COc1nc(NS(=O)(=O)c2c[nH]c3c(-c4ncccn4)c(C(F)F)ccc23)nc(OC)c1OCCF` [Example 44, 6-(difluoromethyl)-N-[5-(2-fluoroethoxy)-4,6-dimethoxy-pyrimidin-2-yl]-7-(2-pyrimidyl)-1H-indole-3-sulfonamide]: 182 nM.
The same measure for `COc1nc(NS(=O)(=O)c2c[nH]c3c(-c4ncc[nH]4)c(F)ccc23)nc(OC)c1OCC(F)F` [Example 45, N-[5-(2,2-difluoroethoxy)-4,6-dimethoxy-pyrimidin-2-yl]-6-fluoro-7-(1H-imidazol-2-yl)-1H-indole-3-sulfonamide]: 50 nM; for `COc1nc(NS(=O)(=O)c2c[nH]c3c(-c4ncn(C)c4C)c(Cl)ccc23)nc(OC)c1OCC(F)F` [Example 46, 6-chloro-N-[5-(2,2-difluoroethoxy)-4,6-dimethoxy-pyrimidin-2-yl]-7-(1,5-dimethylimidazol-4-yl)-1H-indole-3-sulfonamide]: 34 nM.
In the case of `COc1nc(NS(=O)(=O)c2c[nH]c3c(-c4cn(C)cn4)c(Cl)ccc23)nc(OC)c1OCC(F)F` [Example 47, 6-chloro-N-[5-(2,2-difluoroethoxy)-4,6-dimethoxy-pyrimidin-2-yl]-7-(1-methylimidazol-4-yl)-1H-indole-3-sulfonamide] it was 17 nM.
For the compound `COc1nc(NS(=O)(=O)c2c[nH]c3c(-c4ncccn4)c(C)ccc23)nc(OC)c1OCC(F)F` [Example 48, N-[5-(2,2-difluoroethoxy)-4,6-dimethoxy-pyrimidin-2-yl]-6-methyl-7-(2-pyrimidyl)-1H-indole-3-sulfonamide], the IC50 stood at 86 nM.
The same measure for `COc1nc(NS(=O)(=O)c2c[nH]c3c(-c4ncccn4)c(C(F)F)ccc23)nc(OC)c1OCC(F)F` [Example 49, N-[5-(2,2-difluoroethoxy)-4,6-dimethoxy-pyrimidin-2-yl]-6-(difluoromethyl)-7-(2-pyrimidyl)-1H-indole-3-sulfonamide]: 301 nM; for `COc1nc(NS(=O)(=O)c2c[nH]c3c(-c4ncccn4)c(C(F)F)ccc23)nc(OC)c1OC(F)F` [Example 50, N-[5-(difluoromethoxy)-4,6-dimethoxy-pyrimidin-2-yl]-6-(difluoromethyl)-7-(2-pyrimidyl)-1H-indole-3-sulfonamide]: 288 nM.
The same measure for `COc1nc(NS(=O)(=O)c2c[nH]c3c(-c4ncccn4)c(C(F)F)ccc23)nc(OC)c1CC(F)F` [Example 51, N-[5-(2,2-difluoroethyl)-4,6-dimethoxy-pyrimidin-2-yl]-6-(difluoromethyl)-7-(2-pyrimidyl)-1H-indole-3-sulfonamide]: 74 nM.
In the case of `COc1nc(NS(=O)(=O)c2c[nH]c3c(-c4ncccn4)c(C)ccc23)nc(OC)c1CC(F)F` [Example 52, N-[5-(2,2-difluoroethyl)-4,6-dimethoxy-pyrimidin-2-yl]-6-methyl-7-(2-pyrimidyl)-1H-indole-3-sulfonamide] it was 22 nM; in that of `COc1nc(NS(=O)(=O)c2c[nH]c3c(-c4nccnc4C)cccc23)nc(OC)c1CC(F)F` [Example 53, N-[5-(2,2-difluoroethyl)-4,6-dimethoxy-pyrimidin-2-yl]-7-(3-methylpyrazin-2-yl)-1H-indole-3-sulfonamide], 43 nM.
For `COc1nc(NS(=O)(=O)c2c[nH]c3c(-c4nccnc4C)cccc23)nc(OC)c1OCC(F)F` [Example 54, N-[5-(2,2-difluoroethoxy)-4,6-dimethoxy-pyrimidin-2-yl]-7-(3-methylpyrazin-2-yl)-1H-indole-3-sulfonamide], the IC50 was 64 nM.

The record behind these values is patent EP4562003B1, “NOVEL 7-SUBSTITUTED INDOLE SULFONAMIDE DERIVATIVES” (F. Hoffmann-La Roche AG, priority 2022, dated 2024).
